# From patent US20260035385A1, “BENZO NITROGEN-CONTAINING HETEROAROMATIC RING DERIVATIVE AND USE THEREOF IN MEDICINE” (Xizang Haisco Pharmaceutical Co., Ltd., priority 2021, published 2026)
# Assays:
# [1] = test system: complement alternative pathway; test: Biological Test Example 2: complement alternative pathway inhibition, IBL alternative pathway kit, serum from healthy volunteers; type: biochemical, human; conditions: LPS-coated plate, 37 °C 1 h, read-out: IC50 for inhibiting alternative pathway
# Description: The inhibitory effect of the compounds on the complement alternative pathway was detected using the IBL alternative pathway kit (COMPL AP330 RUO). Serum from healthy volunteers was collected and 1 portion was diluted with a buffer of 20 mM EDTA in gelatin (0.15 mM CaCl2, 141 mM NaCl, 4.5 mM MgCl2, 4.2 mM HEPES, and 0.1% gelatin at pH 7.4) to 50% (v/v), and 1 portion was diluted to 50% (v/v) with a buffer of 20 mM EGTA in gelatin. The compounds were prepared in DMSO to a working solution 100 times the final concentration. Before use, 50% of the above serum was diluted 1/18 with the AP diluent in the kit. 1 part of the compound working solution (v/v) or DMSO (positive control PC) was added to 99 parts of the diluted serum containing EGTA for pretreatment for 30 min, and 1 part of DMSO (v/v) was added to 99 parts of the diluted serum containing EDTA, as negative control (NC). The serum pretreated with the above compounds (or DMSO) was added at […] to the LPS-coated 96-well plate, incubated at 37° C. for 1 h, and the plate was washed 3 times with washing solution in the kit; the conjugated chromogenic substrate was added according to the instruction in the kit, and the absorbance was read at 405 nm with a microplate reader. The inhibitory activity of the compounds on alternative pathway was calculated using the following formula.
# OD^CPD was the OD value when the inhibitor was added, OD^NC was the OD value of the negative control, and OD^PC was the OD value of the positive control.
# Graphpad was used to perform nonlinear regression on the final concentrations and inhibition rates of the compounds to obtain the IC50 of the compounds for inhibiting the alternative pathway.
# C3a levels in mice = test: Biological Test Example 4: LPS mouse model, plasma C3a level; type: in vivo; conditions: compound given 3.5 h after LPS, plasma at 7.5 h
# Description: Mice were intravenously given 0.5 mg/ml LPS solution at 100 μL/mouse to create a model, and the naive group was given physiological saline. Mice were given the compounds 3.5 h after injection of physiological saline/LPS solution, and the naive group and model group were given vehicle (0.5% MC+0.5% Tween 80). 7.5 h after the mice in each group were injected with physiological saline/LPS, blood was collected from the orbit and the plasma was separated. The plasma C3a level was detected using mouse C3a ELISA kit (NOVUS/NBP2-70037), and the inhibition rate of C3a was calculated. The formula is as follows: […]
# Among them: Ct, C3a level after administration; Cnaive, C3a level of naive group; Cmodel, C3a level of model group.
# FB = FB (Homo sapiens, UniProt P00751); test: biochemical
# Description: CVF (1 μM), FB (1 μM) and FD (300 nM) were incubated in Assay buffer (pH=7.4, 10 mM MgCl2, 0.05% (m/v), CHAPS) for 3 h at room temperature, so that all FB was cleaved into Baby FD and CVF:Bb complex was generated. SDS-PAGE analysis confirmed that FB was completely hydrolyzed, that is, the concentration of the generated CVF:Bb complex was 300 nM. The CVF:Bb complex was diluted to a concentration of 5 nM using Assay buffer and preincubated with different concentrations of the compounds in assay buffer for 1 h at room temperature. C3 was added to a final concentration of 1 μM to start the enzymatic reaction. After reacting at room temperature for 1 h, protease inhibitor mixture (Roche Complete Inhibitor Tablets) was added to stop the enzyme reaction. Human C3a ELISA kit (Hycult HK354-01) was used to determine the generation of C3a according to the instruction in the kit. The FB activity inhibition rate was plotted against the inhibitor concentration, and graphpad nonlinear regression was used to calculate the IC50 value.
# [2] = Pharmacokinetic test in mice; type: in vivo; conditions: male, C57, mouse, plasma, po, i.g. (10 mg/kg)
# Description: Test objective: In this experiment, a single dose of test compounds was administered to C57 mice intravenously and intragastrically, the concentrations of the test compounds in plasma of mice were measured, and the pharmacokinetic characteristics of the test compounds in mice were evaluated.
# Experimental animals: Male C57 mice, 20-25 g, 6-8 weeks old, 18 mice/compound. purchased from Chengdu Ddossy Experimental Animals Co., Ltd.
# Experimental method: On the day of the experiment, 18 C57 mice were randomly grouped according to their body weight. The animals were fasted with water available for 12 to 14 hours one day before the administration of a test compound, and were fed 4 hours after the administration.
# Sampling: Before and after the administration, 0.08 mL of blood sample was drawn from the orbit under isoflurane anesthesia, and placed in an EDTAK2 centrifuge tube. Centrifugation was carried out at 5000 rpm at 4° C. for 10 min, and the plasma was collected.
# Time points for plasma collection in IV&PO group: 0, 5 min, 15 min, 30 min, 1 h, 2 h, 4 h, 6 h, 8h, and 24 h.
# (§1) Before analysis and detection, all samples were stored at −60° C. The samples were analyzed quantitatively by LC-MS/MS.
# [3] = Pharmacokinetic test of dogs; type: in vivo; conditions: male, beagle, dog, plasma, po, i.g. (5 mg/kg)
# Description: (§2) Test objective: In this experiment, a single dose of test compounds was administered to beagle dogs intravenously and intragastrically, and the concentrations of the test compounds in plasma of the beagle dogs were measured to evaluate pharmacokinetic characteristics of the test compounds in the beagle dogs.
# Experimental animals: Male beagle dogs, 8-11 kg, 1-3 years old, 6 dogs/compound. purchased from Beijing Marshall Biotechnology Co. Ltd.
# Experimental method: on the day of the test, 6 beagle dogs were randomly grouped according to their body weights. The animals were fasted with water available for 14 to 18 hours one day before the administration of a test compound, and were fed 4 hours after the administration.
# Sampling: Before and after the administration, 1.0 mL of blood was taken from the jugular veins or limb veins, and placed in an EDTAK2 centrifuge tube. Centrifugation was carried out at 5000 rpm at 4° C. for 10 min, and the plasma was collected.
# (§3) Time points for plasma collection in IV&PO group: 0, 5 min, 15 min, 30 min, 1 h, 2 h, 4 h, 6 h, 8h, 10 h, 12h, and 24 h.
# as §1
# [4] = Pharmacokinetic experiment in monkeys; type: in vivo, cynomolgus monkeys; conditions: compared with the trifluoroacetate of LNP023, in words
# Description: as §2, with “to cynomolgus monkeys” for “to beagle dogs”, “the monkeys” for “the beagle dogs”, “the monkeys.” for “the beagle dogs.”
# Experimental animals: Male cynomolgus monkeys, 3-5 kg, 3-6 years old, 6 monkeys/compound. Purchased from Suzhou Xishan Biotechnology Inc.
# Experimental method: on the day of the test, 6 monkeys were randomly grouped according to their body weights. The animals were fasted with water available for 14 to 18 hours one day before the administration of a test compound, and were fed 4 hours after the administration.
# Sampling: before and after the administration, 1.0 mL of blood was taken from the limb veins, and placed in an EDTAK2 centrifuge tube. Centrifugation was carried out at 5000 rpm at 4° C. for 10 min, and the plasma was collected.
# as §3, §1
# Caco2 permeability test = type: in vitro ADME; conditions: human; Caco-2 monolayer, 2 μM, 2 h, pH 7.4
# Description: (§4) The experiment used a monolayer of Caco-2 cells incubated in triplicate in a 96-well Transwell plate. […] Acetonitrile containing internal standard was then added to precipitate the protein. […] The integrity of the cell monolayer after 2 h of incubation was assessed by leakage of Lucifer Yellow.
# Caco-2 cells = test: Caco2 permeability test; type: in vitro ADME; conditions: Caco2, compared with the trifluoroacetate of LNP023, in words
# Description: as §4
# [5] = Stability in liver microsome (HLM); type: in vitro ADME, human; conditions: 0.50 mg/mL microsomal protein, 1.00 μM, NADPH, 37 °C
# Description: (§5) The total volume of the incubation system was 100 μL, the medium was 100 mM phosphate buffer (PBS, pH 7.4), including liver microsomal protein with a final concentration of 0.50 mg/mL, 1.00 μM test substance and 1.00 mM NADPH, 37° C. water bath was used for incubation, and 300 μL of ice-cold acetonitrile containing internal standard was added to terminate the reaction after 0, 5, 10, 20, 30, and 60 min of reaction, respectively. The negative control was incubated with heat-inactivated liver microsomes of the corresponding species, and the incubation time points were 0 and 60 min respectively. The LC/MS/MS method was used to detect the concentration of the test substance in the sample and the remaining rate of the compound was calculated.
# [6] = Stability in liver microsome (CLM); type: in vitro ADME, cynomolgus monkey; conditions: 0.50 mg/mL microsomal protein, 1.00 μM, NADPH, 37 °C
# Description: as §5
# [7] = Stability in liver microsome (DLM); type: in vitro ADME, dog; conditions: 0.50 mg/mL microsomal protein, 1.00 μM, NADPH, 37 °C
# Description: as §5
# [8] = Stability in liver microsome (RLM); type: in vitro ADME, rat; conditions: 0.50 mg/mL microsomal protein, 1.00 μM, NADPH, 37 °C
# Description: as §5
# [9] = Stability in liver microsome (MouLM); type: in vitro ADME, mouse; conditions: 0.50 mg/mL microsomal protein, 1.00 μM, NADPH, 37 °C
# Description: as §5
# Sequence of FB (P00751 260-764 limits assumed): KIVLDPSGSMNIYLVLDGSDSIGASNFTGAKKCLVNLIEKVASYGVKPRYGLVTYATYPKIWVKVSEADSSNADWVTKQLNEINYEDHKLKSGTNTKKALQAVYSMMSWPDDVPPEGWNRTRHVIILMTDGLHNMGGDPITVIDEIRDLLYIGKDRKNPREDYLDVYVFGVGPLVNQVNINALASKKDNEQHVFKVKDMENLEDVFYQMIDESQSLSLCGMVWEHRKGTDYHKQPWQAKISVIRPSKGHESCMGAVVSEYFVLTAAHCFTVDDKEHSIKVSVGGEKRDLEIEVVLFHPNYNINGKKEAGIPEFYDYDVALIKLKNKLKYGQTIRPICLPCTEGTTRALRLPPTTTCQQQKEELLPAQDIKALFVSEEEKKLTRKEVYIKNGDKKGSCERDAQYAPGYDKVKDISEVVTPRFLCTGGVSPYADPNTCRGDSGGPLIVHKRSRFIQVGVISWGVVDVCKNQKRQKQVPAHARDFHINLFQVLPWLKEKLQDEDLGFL
# Sequence of FB (Q91132 23-649 partner limits assumed): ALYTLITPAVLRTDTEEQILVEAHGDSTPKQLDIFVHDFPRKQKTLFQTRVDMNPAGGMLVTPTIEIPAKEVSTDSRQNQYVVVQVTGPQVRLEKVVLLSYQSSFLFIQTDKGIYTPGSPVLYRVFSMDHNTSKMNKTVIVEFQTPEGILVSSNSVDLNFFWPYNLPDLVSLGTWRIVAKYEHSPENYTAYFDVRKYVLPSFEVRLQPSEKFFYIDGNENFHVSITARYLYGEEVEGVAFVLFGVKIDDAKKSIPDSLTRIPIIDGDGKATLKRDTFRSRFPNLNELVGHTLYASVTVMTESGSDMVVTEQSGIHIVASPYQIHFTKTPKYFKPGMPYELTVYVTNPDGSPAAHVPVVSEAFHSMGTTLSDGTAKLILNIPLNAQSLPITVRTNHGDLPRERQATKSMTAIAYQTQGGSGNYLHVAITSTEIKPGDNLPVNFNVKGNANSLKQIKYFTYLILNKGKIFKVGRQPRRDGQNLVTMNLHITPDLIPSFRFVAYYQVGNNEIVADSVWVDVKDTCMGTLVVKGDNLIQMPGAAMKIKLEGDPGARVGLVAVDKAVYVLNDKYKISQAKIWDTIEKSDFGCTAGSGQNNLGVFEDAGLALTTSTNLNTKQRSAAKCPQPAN
# Sequence of FB (Q91132 733-984 partner limits assumed): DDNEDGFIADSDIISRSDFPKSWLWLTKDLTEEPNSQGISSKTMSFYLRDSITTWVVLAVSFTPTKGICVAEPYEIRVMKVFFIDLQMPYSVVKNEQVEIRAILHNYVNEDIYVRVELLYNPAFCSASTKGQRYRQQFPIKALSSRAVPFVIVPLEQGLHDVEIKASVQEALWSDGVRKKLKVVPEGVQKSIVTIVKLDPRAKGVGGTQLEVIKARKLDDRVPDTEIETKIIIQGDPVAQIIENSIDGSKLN
# Sequence of FB (Q91132 1264-1642 partner limits assumed): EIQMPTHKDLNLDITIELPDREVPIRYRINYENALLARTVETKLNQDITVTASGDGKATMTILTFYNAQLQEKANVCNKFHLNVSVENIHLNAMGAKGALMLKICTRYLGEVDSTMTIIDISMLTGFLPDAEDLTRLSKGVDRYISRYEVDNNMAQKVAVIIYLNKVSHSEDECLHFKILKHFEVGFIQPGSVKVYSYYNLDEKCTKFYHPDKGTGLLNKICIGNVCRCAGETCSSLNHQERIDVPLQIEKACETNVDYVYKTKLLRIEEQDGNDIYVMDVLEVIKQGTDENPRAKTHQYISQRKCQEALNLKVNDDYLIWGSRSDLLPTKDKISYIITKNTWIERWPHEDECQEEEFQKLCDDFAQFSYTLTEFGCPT
SMILES,IC50 [1],Inhibition rate of C3a levels in mice (C3a levels in mice; Dosage 30 mg/kg),Inhibition rate of C3a levels in mice (C3a levels in mice; Dosage 60 mg/kg),IC50 (FB),bioavailability [2],AUC(0-t) [2],bioavailability [3],AUC(0-t) [3],half-life [3],bioavailability in monkeys [4],oral exposure in monkeys [4],"Papp A→B at 2 h, 2 μM (Caco2 permeability test)","Papp B→A at 2 h, 2 μM (Caco2 permeability test)",permeability (Caco-2 cells),Remaining % (T = 60 min) HLM0.5 [5],Remaining % (T = 60 min) CLM0.5 [6],Remaining % (T = 60 min) DLM0.5 [7],Remaining % (T = 60 min) RLM0.5 [8],Remaining % (T = 60 min) MouLM0.5 [9]
"COc1cc(C)c2[nH]ccc2c1CN1CCC2(CCCO2)C[C@H]1c1ccc(C(=O)O)cc1 (single isomer, unassigned) [Trifluoroacetate of compound 2-b (diastereomer 2)]",< 200 nM,35.04%,73.12%,< 500 nM,–,–,–,–,–,–,–,–,–,–,–,–,–,–,–
"COc1cc(C)c2[nH]ccc2c1CN1CC[C@@H](C2CC2)C[C@H]1c1ccc(C(=O)O)cc1 [Trifluoroacetate of compound 5 (diastereomer 1), 4-((2S)-4-cyclopropyl-1-((5-methoxy-7-methyl-1H-indol-4-yl)methyl)piperidin-2-yl)benzoic acid]",< 200 nM,–,–,–,81.5%,15900 ng·h/mL,62.6%,49300 ng·h/mL,20.9 h,higher,higher,2.17 ×10⁻⁶ cm/s,23.9 ×10⁻⁶ cm/s,better,>90%,>90%,>90%,>90%,>90%
